In brackets after ≈: the same amount, converted by molar mass. Where a SMILES comes first, the peptide text is derived from it. [ ]: non-standard residue; d: D form. Pro(4R-Bn) = O=C(O)[C@@H]1C[C@@H](Cc2ccccc2)CN1
What was measured:
[1] = Cytotoxicity against human MC3T3-E1 cells assessed as decrease in cell viability measured after 36 hrs by WST-1 assay; format: toxicity, cell-based; settings: mouse
[2] = Selectivity index, Ratio of IC50 for human MC3T3-E1 cells to IC50 of human PANC-1 cells
[3] = test system: PANC-1; experiment: Antitumor activity against human PANC-1 cells assessed as decrease in cell viability measured after 36 hrs by WST-1 assay; format: functional, cell-based; settings: PANC-1, 36 h
[4] = test system: MDA-MB-231; experiment: Antitumor activity against human MDA-MB-231 cells assessed as decrease in cell viability measured after 36 hrs by WST-1 assay; format: functional, cell-based; settings: MDA-MB-231, 36 h
[5] = Selectivity index, Ratio of IC50 for human MC3T3-E1 cells to IC50 of human MDA-MB-231 cells; format: toxicity; settings: MC3T3-E1 cells versus MDA-MB-231 cells, read-out: Ratio IC50
[6] = target: T1, Nonstructural protein 5A (Hepatitis C virus, UniProt Q5L478); experiment: Inhibition of HCV genotype 3a NS5A; set-up: species or system Hepacivirus hominis
T1 sequence (Q5L478 whole entry): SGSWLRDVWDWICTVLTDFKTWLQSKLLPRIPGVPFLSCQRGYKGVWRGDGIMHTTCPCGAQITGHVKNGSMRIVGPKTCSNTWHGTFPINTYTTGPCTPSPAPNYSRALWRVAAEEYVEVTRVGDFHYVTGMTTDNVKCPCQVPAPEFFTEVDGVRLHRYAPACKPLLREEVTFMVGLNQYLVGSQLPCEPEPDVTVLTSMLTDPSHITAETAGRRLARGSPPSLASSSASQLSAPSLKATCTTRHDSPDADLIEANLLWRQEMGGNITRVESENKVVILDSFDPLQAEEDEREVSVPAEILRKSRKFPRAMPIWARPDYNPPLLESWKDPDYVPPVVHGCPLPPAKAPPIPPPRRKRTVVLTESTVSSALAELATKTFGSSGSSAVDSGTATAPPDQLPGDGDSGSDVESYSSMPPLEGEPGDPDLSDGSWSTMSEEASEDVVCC

[7] = target: T1, Nonstructural protein 5A; experiment: Inhibition of HCV genotype 1a NS5A; set-up: species or system Hepacivirus hominis
[8] = target: T1, Nonstructural protein 5A; experiment: Inhibition of HCV genotype 5a NS5A; set-up: species or system Hepacivirus hominis
[9] = target: T1, Nonstructural protein 5A; experiment: Inhibition of HCV genotype 2a NS5A; set-up: species or system Hepacivirus hominis
[10] = target: T1, Nonstructural protein 5A; experiment: Inhibition of HCV genotype 6a NS5A; set-up: species or system Hepacivirus hominis
[11] = target: T1, Nonstructural protein 5A; experiment: Inhibition of HCV genotype 4a NS5A; set-up: species or system Hepacivirus hominis
[12] = target: T1, Nonstructural protein 5A; experiment: Inhibition of HCV genotype 1b NS5A; set-up: species or system Hepacivirus hominis
[13] = test system: Priestia megaterium; experiment: Antimicrobial activity against Bacillus megaterium Bm11 incubated for 18 to 20 hrs; format: functional; settings: time 18-20 hrs
[14] = test system: Pseudomonas aeruginosa; experiment: Antimicrobial activity against Pseudomonas aeruginosa ATCC 27853 incubated for 18 to 20 hrs; format: functional; settings: time 18-20 hrs
[15] = test system: Escherichia coli; experiment: Antimicrobial activity against Escherichia coli ATCC 25922 incubated for 18 to 20 hrs; format: functional; settings: time 18-20 hrs
[16] = test system: Candida albicans; experiment: Antimicrobial activity against Candida albicans ATCC 24433 incubated for 18 to 20 hrs; format: functional; settings: time 18-20 hrs
[17] = test system: Staphylococcus epidermidis; experiment: Antimicrobial activity against Staphylococcus epidermidis ATCC 12228 incubated for 18 to 20 hrs; format: functional; settings: time 18-20 hrs

Molecule | IC50 at 36 h [1] | Ratio IC50 [2] | IC50 [3] | IC50 [4] | selectivity ratio [5] | MIC [13] | MIC [14] | MIC [15] | MIC [16] | MIC [17] | further results
CCCCCCCCC#CC(c1ccccc1)N1CCCC1 (configuration not stated) | 250000 nM | 11.6 | 21600 nM | 74000 nM | 3.38 |  |  |  |  |  | 
COC(=O)N[C@H](C(=O)N1CCC[C@H]1c1ncc(-c2ccc3c(c2)CC2c4c(F)cc(-c5cnc([C@@H]6CCCN6C(=O)[C@@H](NC(=O)OC)C(C)C)[nH]5)cc4O[C@@H](c4cnc(C5CC5)s4)N32)[nH]1)C(C)C (some centres not stated) |  |  |  |  |  |  |  |  |  |  | EC50 [6]: 0.003 nM; EC50 [7]: 0.0007 nM; EC50 [8]: 0.0018 nM; EC50 [9]: 0.001 nM; EC50 [10]: 0.001 nM; EC50 [11]: 0.0007 nM; EC50 [12]: 0.002 nM
CC[C@H](C)[C@H](NC(=O)[C@H](CCCNC(=N)N)NC(=O)CNC(=O)[C@H](CC(C)C)NC(=O)[C@H](Cc1ccccc1)NC(=O)[C@H](CCCCN)NC(=O)[C@H](CO)NC(=O)[C@H](Cc1ccccc1)NC(=O)[C@H](Cc1c[nH]c2ccccc12)NC(=O)[C@H](CCC(N)=O)NC(=O)[C@@H]1C[C@@H](Cc2ccccc2)CN1C(=O)[C@@H](NC(=O)[C@@H](N)Cc1ccccc1)C(C)C)C(=O)N[C@@H](CC(C)C)C(N)=O (H-FV[Pro(4R-Bn)]QWFSKFLGRIL-NH2) |  |  |  |  |  | 3.12 µM (≈ 5.7 µg/mL) | 50 µM (≈ 91.4 µg/mL) | 25 µM (≈ 45.7 µg/mL) | 25 µM (≈ 45.7 µg/mL) | 3.12 µM (≈ 5.7 µg/mL) | 
CCCCCCCCC#CC(c1ccc(C(=O)OC)cc1)N1CCCC1 (configuration not stated) | 558000 nM | 41.17 | 13600 nM | 291000 nM | 1.91 |  |  |  |  |  | 
H-FVPQWFSKFLGRIL-NH2 |  |  |  |  |  | 3.12 µM | 25 µM | 12.5 µM | 12.5 µM | 3.12 µM | 

From ChEMBL document CHEMBL5126543, “Tandem construction of biological relevant aliphatic 5-membered N-heterocycles” (Eur J Med Chem, 2022)
